The values that follow come from patent EP2090576A1, “6-halo-pyrazolo[1,5-a]pyridines, a process for their preparation and their use as metabotropic glutamate receptor (mGluR) modulators” (Merz Pharma GmbH & Co. KGaA, priority 2008, dated 2009).

Broadly, the pIC50 is −log10 of the IC50, conventionally taken in molar units.

pIC50: −log10 of the molar value.

T1 sequence (P31424 21-1203): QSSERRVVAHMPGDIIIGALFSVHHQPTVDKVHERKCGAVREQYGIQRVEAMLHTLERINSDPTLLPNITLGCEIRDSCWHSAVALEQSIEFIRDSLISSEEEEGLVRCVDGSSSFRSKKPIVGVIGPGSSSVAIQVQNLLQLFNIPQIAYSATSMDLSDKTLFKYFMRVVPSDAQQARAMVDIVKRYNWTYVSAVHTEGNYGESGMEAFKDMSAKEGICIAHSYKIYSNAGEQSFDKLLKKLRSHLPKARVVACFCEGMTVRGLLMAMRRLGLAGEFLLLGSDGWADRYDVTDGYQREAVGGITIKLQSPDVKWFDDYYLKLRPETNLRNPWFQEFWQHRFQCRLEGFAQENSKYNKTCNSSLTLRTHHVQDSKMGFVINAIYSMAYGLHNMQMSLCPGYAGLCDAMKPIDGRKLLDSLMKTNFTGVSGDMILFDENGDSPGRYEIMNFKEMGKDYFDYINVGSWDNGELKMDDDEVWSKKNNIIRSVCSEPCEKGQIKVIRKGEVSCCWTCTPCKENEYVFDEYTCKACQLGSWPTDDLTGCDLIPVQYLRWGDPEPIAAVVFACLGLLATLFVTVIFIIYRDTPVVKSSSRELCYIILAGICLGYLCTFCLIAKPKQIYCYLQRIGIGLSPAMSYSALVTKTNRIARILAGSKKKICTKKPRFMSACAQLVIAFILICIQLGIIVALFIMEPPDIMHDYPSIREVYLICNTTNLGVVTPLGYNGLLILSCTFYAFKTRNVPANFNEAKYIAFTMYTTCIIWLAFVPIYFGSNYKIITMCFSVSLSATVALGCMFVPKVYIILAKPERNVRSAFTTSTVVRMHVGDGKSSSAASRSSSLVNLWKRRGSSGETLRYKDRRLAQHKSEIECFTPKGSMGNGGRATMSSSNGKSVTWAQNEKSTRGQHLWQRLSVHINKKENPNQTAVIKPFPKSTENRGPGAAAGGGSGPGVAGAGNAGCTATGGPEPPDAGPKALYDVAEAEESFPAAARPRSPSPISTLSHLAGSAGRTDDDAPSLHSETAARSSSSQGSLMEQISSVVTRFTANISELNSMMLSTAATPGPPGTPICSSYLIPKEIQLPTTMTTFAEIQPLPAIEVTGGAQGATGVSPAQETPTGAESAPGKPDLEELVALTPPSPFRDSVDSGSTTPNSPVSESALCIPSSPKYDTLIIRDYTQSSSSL

One test has as its target T1, mGluR5 receptors (Rattus norvegicus, UniProt P31424).
T1 construct: Primary astrocyte cultures are prepared from cortices of newborn rats; endogenous in cells; host or cells: primary cortical astrocytes from Sprague-Dawley rat pups (2-4 d old), 14-15 DIV
Kind of test: Cytosolic Calcium studies with astrocytes (astrocyte culture test, FLIPR). Type of test: cell-based. Conditions: primary rat cortical astrocytes, 14-15 DIV; 10 minutes pre-incubation, L-quisqualate 100 nM; read-out: mGluR5_FLIPRr_rpA IC50. How it is done:
Primary astrocyte cultures are prepared from cortices of newborn rats as described by Booher and Sensenbrenner (1972, Neurobiology 2(3):97-105). Briefly, Sprague-Dawley rat pups (2 - 4 d old) are decapitated and neocortices are dissected, disintegrated with a nylon filter (pore size 80 µm) and carefully triturated. The cell suspension is plated on poly-D-lysine pre-coated flasks (Costar, Netherlands) and cultivated in Dulbecco's Modified Eagle's Medium (DMEM, Invitrogen, Germany) supplemented with 10% foetal calf serum (FCS, Sigma, Germany), 4 mM glutamine and 50 µg/ml gentamycin (both Biochrom, Germany) at 37°C in a humidified atmosphere of 5% CO2 / 95% air for 7 d with exchanging the medium at day 2 and 6.
After 7 days in vitro (DIV), cells are shaken overnight at 250 rpm to remove oligodendrocytes and microglia. The next day, astrocytes are rinsed twice with CMF-PBS (calcium- and magnesium-free phosphate buffered saline, Biochrom, Germany), trypsinized and subplated on poly-D-lysine pre-coated 96-well plates (Greiner, Germany) at a density of 40,000 cells/well. 24 h after establishing the secondary culture the astrocytes are rinsed with PBS^++ (phosphate buffered saline, Biochrom, Germany) and fed with astrocyte-defined medium (ADM) consisting of DMEM containing 1x G5-supplement (Invitrogen, Germany), 0.5 µg/ml heparan sulfate, and 1.5 µg/ml fibronectin (both Sigma, Germany) (Miller et al., (1993) Brain Res. 618(1):175-8). 3 d later the medium is exchanged and the cells incubated for another 2-3 d, so that at the time of experiments astrocytes are 14-15 DIV.
Cytosolic Calcium studies with astrocytes:
The increase of cytosolic calcium after stimulation with the mGluR5 agonist L-quisqualate is measured using a fluorometric imaging plate reader (FLIPR) and the Ca-Kit (both Molecular Devices). Prior to addition of agonist or antagonist the medium is aspirated and cells are loaded for 2 h at RT with 150 µl of loading buffer consisting of Ca-sensitive dye reconstituted in sodium chloride (123 mM), potassium chloride (5.4 mM), magnesium chloride (0.8 mM), calcium chloride (1.8 mM), D-glucose (15 mM), and HEPES (20 mM), pH 7.3. Subsequently, plates are transferred to FLIPR to detect calcium increase with the addition of L-quisqualate (100 nM) measured as relative fluorescence units (RFU). If antagonists are tested, these compounds are pre-incubated for 10 minutes at RT before addition of the respective agonist.
(§1) The fluorescence signal increase after addition of agonist reflects the increase of cytosolic calcium. Inconsistencies in the amount of cells per well are normalised by using the spatial uniformity correction of the FLIPR software. The mean of replicated temporal data (n=3-5) is calculated and used for graphical representation. For the evaluation of the pharmacology, the calcium changes in response to different concentrations of agonist or antagonist are determined using a maximum minus minimum (MaxMin) calculation.
(§2) All responses (RFU-values) are determined as percentage of control (= maximum response). EC50 and IC50 are calculated according the logistic equation using GraFit 5.0 (Erithacus Software, GB) or Prism 4.0 (GraphPad Software, USA).
As to `CC1c2ccccc2CCN1C(=O)c1cc2ccc(Br)cn2n1` (stereo not shown) [drawing 1017, (6-Bromo-pyrazolo[1,5-a]pyridin-2-yl)-(1-methyl-3,4-dihydro-1H-isoquinolin-2-yl)-methanone], the negative logarithm of the IC50 (pIC50) is 6.82. In the case of `CC1c2ccccc2CCN1C(=O)c1cc2ccc(Cl)cn2n1` (stereo not shown) [drawing 1018, (6-Chloro-pyrazolo[1,5-a]pyridin-2-yl)-(1-methyl-3,4-dihydro-1H-isoquinolin-2-yl)-methanone], the pIC50 was 7.35. Still for that read-out and setting: the same measure for `O=C(c1cc2ccc(Br)cn2n1)N1CCc2ncc(Br)cc2C1` [drawing 1019, (3-Bromo-7,8-dihydro-5H-[1,6]naphthyridin-6-yl)-(6-bromo-pyrazolo[1,5-a]pyridin-2-yl)-methanone]: 6.97.

Consider `CC1c2ccsc2CCN1C(=O)c1cc2ccc(Br)cn2n1` (stereo not shown) [drawing 1020, (6-Bromo-pyrazolo[1,5-a]pyridin-2-yl)-(4-methyl-6,7-dihydro-4H-thieno[3,2-c]pyridin-5-yl)-methanone], for which the negative-log IC50 (pIC50) was 7.29.

As to `Cc1ccc2n1CCN(C(=O)c1cc3ccc(Br)cn3n1)C2C` (stereo not shown) [drawing 1021, 6-bromo-2-[(1,6-dimethyl-3,4-dihydropyrrolo[1,2-a]pyrazin-2(1 H)-yl)carbonyl]pyrazolo[1,5-a]pyridine], the pIC50 was 6.83. With `CC1c2ccoc2CCN1C(=O)c1cc2ccc(Br)cn2n1` (stereo not shown) [drawing 1022, (6-Bromo-pyrazolo[1,5-a]pyridin-2-yl)-(4-methyl-6,7-dihydro-4H-furo[3,2-c]pyridin-5-yl)-methanone], the negative logarithm of the IC50 (pIC50) is 7.37. As for `CN1c2ccccc2CCN1C(=O)c1cc2ccc(Br)cn2n1` [drawing 1023, (6-Bromo-pyrazolo[1,5-a]pyridin-2-yl)-(1-methyl-3,4-dihydro-1H-cinnolin-2-yl)-methanone], the pIC50 was 6.81.

The target in the next test is T2, transmembrane allosteric modulatory sites of mGluR5 receptors (Rattus norvegicus, UniProt P31424).
T2 construct: from tissue; host or cells: rat cerebral cortex membranes (male Sprague-Dawley rats)
T2 sequence (P31424 21-1203): as above
The test can be described thus: [3H]-MMPEP binding assay in rat cortical membranes. Conditions: radioligand [3H]-MMPEP, 60 minutes at room temperature, read-out: mGluR5_M_ MPEP_r_CTX_ IC50. How it is done:
Preparation of rat cortical membranes:
The resulting pellet is re-suspended in 20 volumes of distilled water and centrifuged for 20 minutes at 8000 x g. […] All centrifugation steps are carried out at 4°C.
Alternatively, assays are performed with [^3H]-MMPEP (2-(3-methoxyphenylethynyl)-6-methylpyridine hydrochloride) as radioligand. […] Incubations are terminated using a Millipore filter system.
For the compound `CC1c2ccccc2CCN1C(=O)c1cc2ccc(Br)cn2n1` (stereo not shown) [drawing 1024, (6-Bromo-pyrazolo[1,5-a]pyridin-2-yl)-(1-methyl-3,4-dihydro-1H-isoquinolin-2-yl)-methanone], the pIC50 was 6.40. On the same count and under the same terms, the same measure for `CC1c2ccccc2CCN1C(=O)c1cc2ccc(Cl)cn2n1` (stereo not shown) [drawing 1025, (6-Chloro-pyrazolo[1,5-a]pyridin-2-yl)-(1-methyl-3,4-dihydro-1H-isoquinolin-2-yl)-methanone]: 6.59; for `CC1c2ccoc2CCN1C(=O)c1cc2ccc(Br)cn2n1` (stereo not shown) [drawing 1026, (6-Bromo-pyrazolo[1,5-a]pyridin-2-yl)-(4-methyl-6,7-dihydro-4H-furo[3,2-c]pyridin-5-yl)-methanone]: 6.18. Regarding `C[C@@H]1c2ccccc2CCN1C(=O)c1cc2c(Cl)cc(Cl)cn2n1` [drawing 1027, (4,6-Dichloro-pyrazolo[1,5-a]pyridin-2-yl)-((R)-1-methyl-3,4-dihydro-1H-isoquinolin-2-yl)-methanone], the negative logarithm of the IC50 (pIC50) is 7.37.

The target in another test is T3, human metabotropic glutamate receptor mGluR5 (Homo sapiens, UniProt P41594).
T3 construct: expressed in transfected cells; host or cells: CHO-K1 cells (IPTG-inducible expression)
T3 sequence (P41594 21-1212): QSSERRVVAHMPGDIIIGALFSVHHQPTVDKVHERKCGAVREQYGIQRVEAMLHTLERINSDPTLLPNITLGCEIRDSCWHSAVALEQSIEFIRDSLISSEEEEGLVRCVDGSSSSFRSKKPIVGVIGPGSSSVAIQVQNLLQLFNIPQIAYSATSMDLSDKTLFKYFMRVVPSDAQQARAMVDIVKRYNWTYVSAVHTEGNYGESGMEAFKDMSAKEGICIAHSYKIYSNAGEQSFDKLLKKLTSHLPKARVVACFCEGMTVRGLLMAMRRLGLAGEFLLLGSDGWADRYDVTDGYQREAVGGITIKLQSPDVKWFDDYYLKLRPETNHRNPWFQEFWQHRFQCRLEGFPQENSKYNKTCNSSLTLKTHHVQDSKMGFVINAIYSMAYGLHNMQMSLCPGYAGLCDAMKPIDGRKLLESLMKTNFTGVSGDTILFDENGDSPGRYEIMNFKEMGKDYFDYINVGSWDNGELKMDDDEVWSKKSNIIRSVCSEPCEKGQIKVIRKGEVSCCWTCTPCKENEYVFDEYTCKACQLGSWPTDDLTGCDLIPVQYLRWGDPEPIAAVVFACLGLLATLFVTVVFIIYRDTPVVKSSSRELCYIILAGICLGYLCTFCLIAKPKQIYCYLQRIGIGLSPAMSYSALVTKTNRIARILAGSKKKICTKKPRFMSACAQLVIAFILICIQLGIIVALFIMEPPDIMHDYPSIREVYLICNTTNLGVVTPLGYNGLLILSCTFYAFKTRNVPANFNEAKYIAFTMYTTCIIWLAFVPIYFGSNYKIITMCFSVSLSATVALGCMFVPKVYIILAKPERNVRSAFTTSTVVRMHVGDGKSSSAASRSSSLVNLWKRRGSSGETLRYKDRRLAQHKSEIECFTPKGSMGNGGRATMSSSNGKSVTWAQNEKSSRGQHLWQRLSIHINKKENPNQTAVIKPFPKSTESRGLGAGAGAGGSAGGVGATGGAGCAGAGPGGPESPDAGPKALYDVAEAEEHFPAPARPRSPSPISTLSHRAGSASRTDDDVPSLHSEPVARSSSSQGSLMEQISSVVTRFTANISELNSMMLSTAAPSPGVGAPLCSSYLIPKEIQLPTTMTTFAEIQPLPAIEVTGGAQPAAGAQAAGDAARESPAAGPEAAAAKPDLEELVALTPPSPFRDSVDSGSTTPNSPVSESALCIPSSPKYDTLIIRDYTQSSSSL
Kind of test: Cytosolic Calcium studies with stably transfected cells (FLIPR). Type of test: cell-based. Conditions: CHO-K1 cells with inducible human mGluR5; test compound added 5 minutes before L-quisqualic acid (concentration giving ~80% of the maximal signal); read-out: mGluR5_FLIPR_h_ CHO_NAM IC50. How it is done:
Cytosolic Calcium studies with stably transfected cells:
Chinese hamster ovary cells (CHO-K1 cells), stably transfected for inducible expression of a human metabotropic glutamate receptor mGluR5, are seeded into black clear bottom 96 well plates at a density of 35.000 cells per well. The standard growth medium used (Dulbecco's modified Eagle Medium, DMEM plus L-proline) contains the appropriate inducer isopropyl-β-D-thiogalactopyranosid (IPTG) to achieve optimal receptor expression. One day after seeding the growth medium is exchanged for reconstituted Ca-Kit (Molecular Devices, USA) and incubated for one hour. Ca-Kit is reconstituted in an assay buffer containing 20 mM HEPES pH 7.4, glutamic-pyruvate transaminase, pyridoxal phosphate and sodium pyruvate in Hank's balanced salt solution (HBBS). Agonistic compounds to the receptor elicit increases in cytosolic calcium which can be measured as increases in fluorescence signals by use of a fluorescence imaging plate reader (Molecular Devices).
as §1, §2
On to `CC1c2ccccc2CCN1C(=O)c1cc2ccc(Br)cn2n1` (stereo not shown) [drawing 1009, (6-Bromopyrazolo[1,5-a]pyridin-2-yl)-(1-methyl-3,4-dihydro-1H-isoquinolin-2-yl)-methanone], for which the pIC50 was 6.66. On the same count and under the same terms, the same measure for `CC1c2ccccc2CCN1C(=O)c1cc2ccc(Cl)cn2n1` (stereo not shown) [drawing 1010, (6-Chloro-pyrazolo[1,5-a]pyridin-2-yl)-(1-methyl-3,4-dihydro-1H-isoquinolin-2-yl)-methanone]: 6.99; for `O=C(c1cc2ccc(Br)cn2n1)N1CCc2ncc(Br)cc2C1` [drawing 1011, (3-Bromo-7,8-dihydro-5H-[1,6]naphthyridin-6-yl)-(6-bromo-pyrazolo[1,5-a]pyridin-2-yl)-methanone]: 6.51; for `CC1c2ccsc2CCN1C(=O)c1cc2ccc(Br)cn2n1` (stereo not shown) [drawing 1012, (6-Bromo-pyrazolo[1,5-a]pyridin-2-yl)-(4-methyl-6,7-dihydro-4H-thieno[3,2-c]pyridin-5-yl)-methanone]: 6.78. As for `Cc1ccc2n1CCN(C(=O)c1cc3ccc(Br)cn3n1)C2C` (stereo not shown) [drawing 1013, 6-bromo-2-[(1,6-dimethyl-3,4-dihydropyrrolo[1,2-a]pyrazin-2(1H)-yl)carbonyl]pyrazol o[1,5-a]pyridine], the pIC50 was 6.75. On the same count and under the same terms, the same measure for `CC1c2ccoc2CCN1C(=O)c1cc2ccc(Br)cn2n1` (stereo not shown) [drawing 1014, (6-Bromo-pyrazolo[1,5-a]pyridin-2-yl)-(4-methyl-6,7-dihydro-4H-furo[3,2-c]pyridin-5-yl)-methanone]: 6.78; for `CN1c2ccccc2CCN1C(=O)c1cc2ccc(Br)cn2n1` [drawing 1015, (6-Bromo-pyrazolo[1,5-a]pyridin-2-yl)-(1-methyl-3,4-dihydro-1H-cinnolin-2-yl)-methanone]: 6.39; for `C[C@@H]1c2ccccc2CCN1C(=O)c1cc2c(Cl)cc(Cl)cn2n1` [drawing 1016, (4,6-Dichloro-pyrazolo[1,5-a]pyridin-2-yl)-((R)-1-methyl-3,4-dihydro-1H-isoquinolin-2-yl)-methanone]: 6.94.
